Experimental findings from patent US20250361269A1, “PEPTIDE EXHIBITING MUSCLE LOSS PREVENTION AND MUSCLE MASS PROMOTION ACTIVITIES, AND USE THEREOF” (CAREGEN CO., LTD., priority 2022, published 2025) are described below.

Test [1] relates to C2C12 cells. Put plainly: Western blotting of early differentiation markers in C2C12 myoblasts. Format: cell-based, mouse. Conditions: 5, 50, or 100 ug/ml peptide, after three days in differentiation medium, vs CM group. How it is done: In this example, by evaluating changes in the expression of an early differentiation marker protein of C2C12 cells, which are mouse myoblasts, it was to confirm the effects of the peptide according to an example on the differentiation of myoblasts into muscle cells/muscle fibers at an early differentiation stage.
The C2C12 cells were cultured in a DMEM supplemented with 1% P/S and 2% BCS. When the cell confluency reached 70-80%, the cells were seeded into 6-well culture plates. Afterwards, when the cell confluency in the 6-well culture plate reached 100%, the culture medium was replaced with a differentiation medium (supplemented with 1% P/S and 2% horse serum), and 5, 50, or 100 ug/ml of the peptide of SEQ ID NO: 1 was added thereto. Afterwards, the differentiation medium and the same amount of the peptide of SEQ ID NO: 1 were replaced and added, respectively, once every two days. After three days from the first day of medium replacement, the culture was lysed by adding a dissolution buffer thereto, and proteins were obtained by centrifugation at 4° C. and 12,000 rpm for 30 minutes. These proteins were then quantified by using a BCA kit. […] After washing with PBS-T again, the proteins were detected by using Gel Doc (Bio-Rad, Hercules, CA, USA) and Western detection reagents (Elpis Biotech, Daejeon, Korea). […]

The test system of test [2] is C2C12 cells. Put plainly: Western blotting of late differentiation marker MyHC in C2C12 myoblasts. The class given is cell-based, mouse. The following applies: 5, 50, or 100 ug/ml peptide, after 7 days in differentiation medium, vs CM group. Here is the method: The C2C12 cells were cultured in a DMEM supplemented with 1% P/S and 2% BCS. When the cell confluency reached 70-80%, the cells were seeded into 6-well culture plates. Afterwards, when the cell confluency in the 6-well culture plate reached 100%, the culture medium was replaced with a differentiation medium (supplemented with 1% P/S and 2% horse serum), and 5, 50, or 100 ug/ml of the peptide of SEQ ID NO: 1 was added thereto. Afterwards, the differentiation medium and the same amount of the peptide of SEQ ID NO: 1 were replaced and added, respectively, once every two days. […] These proteins were then quantified by using a BCA kit. SDS-PAGE was performed on samples containing these proteins to separate the respective proteins which were then electrotransferred onto a membrane. The membrane to which the proteins were attached was blocked by treating with 5% skim milk, and primary antibodies were allowed for a reaction overnight at 4° C. After washing with PBS-T, secondary antibodies were allowed for a reaction at room temperature for 1 hour. After washing with PBS-T again, the proteins were detected by using Gel Doc (Bio-Rad, Hercules, CA, USA) and Western detection reagents (Elpis Biotech, Daejeon, Korea). […]

Test [3] has as its system muscle tissue, muscle damage induced by BaCl2. Put plainly: Sirius red staining of muscle tissue from BaCl2-induced muscle damage model. Format: in vivo, C57BL/6 mouse. Conditions: 20 mg peptide orally, six times, Day 7 after BaCl2 muscle damage. Here is the method: (§1) 50 μl of a 1.2% (w/v) BaCl2 aqueous solution was injected into the tibialis anterior (TA) muscle of a 8-week-old male C57BL/6 mouse to induce muscle damage for 1 day. Afterwards, 20 mg of the peptide of SEQ ID NO: 1 was administered orally at a concentration of 0.1 mg/μl at 1-day intervals for a total of six times to the mouse with induced muscle damage. For a positive control group, 0.5 ug of IGF-I was injected intramuscularly at a concentration of 0.01 ug/μl. On Day 7 after inducing the muscle damage, the mouse was sacrificed, and the changes in the TA muscle were visually observed and the mouse was weighed. A non-treated group (Non) was used as a control group, a group (N.C) in which only muscle damage was induced by BaCl2 was used as a negative control group, and a group (P.C) in which muscle damage was induced by BaCl2 and then treated with IGF-I was used as a positive control group. Muscle tissue obtained from the mouse with induced muscle damage of Example 4-1 was washed with PBS at room temperature and then fixed with 4% paraformaldehyde (PFA). Afterwards, the fixed muscle tissue was washed three times with PBS and dehydrated by using a gradient ethanol series (from 70% to 100%). A sample of the muscle tissue was sectioned into 4 μm sections. […]

Test [4] has the same test system. In words: Western blotting of protein expression in muscle tissue from BaCl2-induced muscle damage model. Format: in vivo, C57BL/6 mouse. The following applies: 20 mg peptide orally, six times, Day 7 after BaCl2 muscle damage. How it is done: 50 μl of a 1.2% (w/v) BaCl2 aqueous solution was injected into the tibialis anterior (TA) muscle of a 8-week-old male C57BL/6 mouse to induce muscle damage for 1 day. Afterwards, 20 mg of the peptide of SEQ ID NO: 1 was administered orally at a concentration of 0.1 mg/μl at 1-day intervals for a total of six times to the mouse with induced muscle damage. For a positive control group, 0.5 ug of IGF-I was injected intramuscularly at a concentration of 0.01 ug/μl. On Day 7 after inducing the muscle damage, the mouse was sacrificed, and the changes in the TA muscle were visually observed and the mouse was weighed. A non-treated group (Non) was used as a control group, a group (N.C) in which only muscle damage was induced by BaCl2 was used as a negative control group, and a group (P.C) in which muscle damage was induced by BaCl2 and then treated with IGF-I was used as a positive control group. The muscle tissue obtained from the mouse with the induced muscle damage of Example 4-1 was lysed by using homogenizer, and the lysate was dissolved by adding a dissolution buffer thereto. The resulting product was centrifuged at 4° C. and 12,000 rpm for 30 minutes to obtain proteins which were then quantified by using a BCA kit. SDS-PAGE was performed on samples containing these proteins to separate the respective proteins which were then electrotransferred onto a membrane. The membrane to which the proteins were attached was blocked by treating with 5% skim milk, and primary antibodies were allowed for a reaction overnight at 4° C. After washing with PBS-T, secondary antibodies were allowed for a reaction at room temperature for 1 hour. After washing with PBS-T again, the proteins were detected by using Gel Doc (Bio-Rad, Hercules, CA, USA) and Western detection reagents (Elpis Biotech, Daejeon, Korea). Here, anti-MyHC (Santa Cruz, USA), anti-α-actinin (Santa Cruz, USA), anti-α-SMA (Abcam, UK), anti-IL-6 (Santa Cruz, USA), and anti-a-tubulin (Santa Cruz, USA) were used as the primary antibodies.
(In western blotting, separated proteins are transferred to a membrane and probed.)

Test [5] has the same test system. Put plainly: H&E staining of muscle tissue from BaCl2-induced muscle damage model. Format: in vivo, C57BL/6 mouse. Conditions: 20 mg peptide orally, six times, Day 7 after BaCl2 muscle damage. Here is the method: as §1
Test [6] has as its system tibialis anterior (TA) muscle, muscle damage induced by BaCl2. In words: Muscle mass of TA muscle in BaCl2-induced muscle damage animal model. The class given is in vivo, C57BL/6 mouse. The following applies: 20 mg peptide orally at 1-day intervals, six times; Day 7 after BaCl2 muscle damage. How it is done:
In this example, an animal model of muscle damage induced by BaCl2 was used to determine the effect of the peptide according to an embodiment on the muscle loss prevention, by evaluating changes in muscle mass, areas of infiltration of immune cells in muscle tissue, levels of accumulated collagen, and expression levels of proteins constituting muscle fibers and inflammatory proteins. 50 μl of a 1.2% (w/v) BaCl2 aqueous solution was injected into the tibialis anterior (TA) muscle of a 8-week-old male C57BL/6 mouse to induce muscle damage for 1 day. Afterwards, 20 mg of the peptide of SEQ ID NO: 1 was administered orally at a concentration of 0.1 mg/μl at 1-day intervals for a total of six times to the mouse with induced muscle damage. For a positive control group, 0.5 ug of IGF-I was injected intramuscularly at a concentration of 0.01 ug/μl. On Day 7 after inducing the muscle damage, the mouse was sacrificed, and the changes in the TA muscle were visually observed and the mouse was weighed. A non-treated group (Non) was used as a control group, a group (N.C) in which only muscle damage was induced by BaCl2 was used as a negative control group, and a group (P.C) in which muscle damage was induced by BaCl2 and then treated with IGF-I was used as a positive control group.

For test [7], the system named is C2C12 cells. Put plainly: Immunofluorescence of a-actinin in C2C12 myoblasts. Format: cell-based, mouse. Conditions: after 7 days in differentiation medium, vs CM group.
Test [8] relates to C2C12 cells. In words: Immunofluorescence of myogenin (MyoG) in C2C12 myoblasts. Format: cell-based, mouse. The following applies: 100 ug/ml peptide, after three days in differentiation medium. Here is the method:
C2C12 cells were cultured in a DMEM supplemented with 1% P/S and 2% BCS. When the cell confluency reached 70-80%, the cells were seeded into a 6-well culture plate. Afterwards, when the cell confluency in the 6-well culture plate reached 100%, the culture medium was replaced with a differentiation medium (supplemented with 1% P/S and 2% horse serum), and 100 ug/ml of the peptide of SEQ ID NO: 1 was added thereto. Afterwards, the differentiation medium and 100 ug/ml of the peptide were replaced and added, respectively, once every two days. After three days from the first day of medium replacement, the cultured cells were fixed with 4% paraformaldehyde (PFA) at room temperature for 10 minutes and permeabilized with 0.1% triton X-100 for 5 minutes. Afterwards, the fixed cells were mixed with PBS, 10% FBS, and 0.1% triton X-100 for blocking at room temperature for 1 hour, and then treated with primary antibodies (MyoG, Santa Cruz, USA). The resulting cells were incubated for 1 hour at room temperature. Afterwards, the cells were washed, and incubated again with secondary antibodies (goat anti-mouse IgG-TR, Santa Cruz, USA) at room temperature for 30 minutes. Afterwards, the cell nuclei were stained with DAPI (Santa Cruz, USA) and observed under a LEICA fluorescence microscope (TCS SP8, LEICA, Germany).

Consider EAEYEHL [peptide of SEQ ID NO: 1], for which, in the test on C2C12 cells [1], the “expression of Myf5, early differentiation marker of myoblasts” value is recorded as “increased” and the “expression of myogenin (MyoG), early differentiation marker of myoblasts” value is “increased”. Further, the “expression of MyHC, late differentiation marker of myoblasts” value in the test with C2C12 cells [2] is given as “increased”. Moreover, the “accumulation of collagen in the tissue” value in test [3] is reported as “reduced”. Besides, in test [4], the “expression of IL-6 in damaged tissue” value was “decreased”; the “expression of MyHC, protein constituting muscle fibers, in damaged tissue” value was “increased”; the “expression of α-SMA, inflammatory protein, in damaged tissue” value is “decreased”; the “expression of α-actinin in damaged tissue” value is given as “increased”. Also, in test [5], the “area of infiltration of immune cells in the tissue” value is given as “reduced”. Also, the “muscle mass of the TA muscle” value in test [6] was “increased”. The “expression of a-actinin, late differentiation marker of myoblasts” value with C2C12 cells [7] is “increased”. In the test with C2C12 cells [8], the “expression of myogenin (MyoG)” value is “increased” and the “expression of myogenin (MyoG) in the nuclear region of myoblasts” value is listed as “increased”.
